What is called IC50 is the concentration at which inhibition is half-maximal.

This passage reports IC50 results from patent publication US20250340560A1, “SUBSTITUTED PYRAZOLO[1,5-a]PYRIMIDINES AS BRUTON'S TYROSINE KINASE MODULATORS” (BEIGENE SWITZERLAND GMBH, priority 2013, published 2025).

Structures can show the parent of a compound that is named as a salt.

Recombinant Btk, sequence (Q06187 whole entry): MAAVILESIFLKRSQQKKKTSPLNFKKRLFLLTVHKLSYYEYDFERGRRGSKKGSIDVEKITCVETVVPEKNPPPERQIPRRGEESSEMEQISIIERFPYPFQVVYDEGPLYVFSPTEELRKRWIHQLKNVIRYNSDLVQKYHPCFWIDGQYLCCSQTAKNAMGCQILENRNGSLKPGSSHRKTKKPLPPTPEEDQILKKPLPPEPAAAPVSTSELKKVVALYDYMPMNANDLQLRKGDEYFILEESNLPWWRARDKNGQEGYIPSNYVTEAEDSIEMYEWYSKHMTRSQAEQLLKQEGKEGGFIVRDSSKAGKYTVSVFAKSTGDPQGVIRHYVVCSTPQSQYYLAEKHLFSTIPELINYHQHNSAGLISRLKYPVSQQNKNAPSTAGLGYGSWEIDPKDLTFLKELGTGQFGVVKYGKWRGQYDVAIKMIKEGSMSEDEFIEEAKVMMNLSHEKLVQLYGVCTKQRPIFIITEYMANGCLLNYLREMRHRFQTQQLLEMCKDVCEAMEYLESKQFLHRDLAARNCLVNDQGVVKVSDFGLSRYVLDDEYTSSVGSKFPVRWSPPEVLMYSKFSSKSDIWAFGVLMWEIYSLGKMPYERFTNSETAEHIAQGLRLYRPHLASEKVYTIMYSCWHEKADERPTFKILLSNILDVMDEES

The experiment concerns the target Recombinant Btk (Homo sapiens (Human), UniProt Q06187). Kind of experiment: BTK kinase assay (TR-FRET). Conditions: read-out: IC50 (nM) Btk; 1 hour pre-incubation, ATP at Km. On the technique in general: TR-FRET usually uses a lanthanide donor and a delayed reading to cut background.
As for `NC(=O)c1c(-c2ccc(Oc3ccccc3)cc2)nn2c1NCCC2c1cc(N)ccc1Cl` (stereo not shown) [Compound 95, 7-(5-amino-2-chlorophenyl)-2-(4-phenoxyphenyl)-4,5,6,7-tetrahydropyrazolo[1,5-a]pyrimidine-3-carboxamide], the IC50 is 470 nM.
In the case of `C=CC(=O)Nc1ccc(Cl)c(C2CCNc3c(C(N)=O)c(-c4ccc(Oc5ccccc5)cc4)nn32)c1` (stereo not shown) [Compound 96, 7-(5-acrylamido-2-chlorophenyl)-2-(4-phenoxyphenyl)-4,5,6,7-tetrahydropyrazolo[1,5-a]pyrimidine-3-carboxamide], the IC50 was found to be 30 nM.
`C=CC(=O)Nc1cc(C2CCNc3c(C(N)=O)c(-c4ccc(Oc5ccccc5)cc4)nn32)ccc1Cl` (stereo not shown) [Compound 97, 7-(3-acrylamido-4-chlorophenyl)-2-(4-phenoxyphenyl)-4,5,6,7-tetrahydropyrazolo[1,5-a]pyrimidine-3-carboxamide]: the half-maximal inhibitory concentration (IC50) stood at 1.1 nM.
Take `NC(=O)c1c(-c2ccc(Oc3ccccc3)cc2)nn2c1NCCC2c1ccc(N)cc1` (stereo not shown) [Compound 98, 7-(4-aminophenyl)-2-(4-phenoxyphenyl)-4,5,6,7-tetrahydropyrazolo[1,5-a]pyrimidine-3-carboxamide]: the 50% inhibitory concentration (IC50) came out at 77 nM.
`NC(=O)c1c(-c2ccc(Oc3ccccc3)cc2)nn2c1NCCC2c1ccncc1` (stereo not shown) [Compound 100, 2-(4-phenoxyphenyl)-7-(pyridin-4-yl)-4,5,6,7-tetrahydropyrazolo[1,5-a]pyrimidine-3-carboxamide]: the IC50 worked out at 260 nM.
The value for `NC(=O)c1c(-c2ccc(Oc3ccccc3)cc2)nn2c1NCCC2c1cccnc1` (stereo not shown) [Compound 101, 2-(4-phenoxyphenyl)-7-(pyridin-3-yl)-4,5,6,7-tetrahydropyrazolo[1,5-a]pyrimidine-3-carboxamide] was 550 nM; that for `NC(=O)c1c(-c2ccc(Oc3ccccc3)cc2)nn2c1NCCC2c1ccccn1` (stereo not shown) [Compound 102, 2-(4-phenoxyphenyl)-7-(pyridin-2-yl)-4,5,6,7-tetrahydropyrazolo[1,5-a]pyrimidine-3-carboxamide] was 830 nM; that for `C=CC(=O)N1CCCC1C1CCNc2c(C(N)=O)c(-c3ccc(Oc4ccccc4)cc3)nn21` (stereo not shown) [Compound 103, 7-(1-acryloylpyrrolidin-2-yl)-2-(4-phenoxyphenyl)-4,5,6,7-tetrahydropyrazolo[1,5-a]pyrimidine-3-carboxamide] was 1.1 nM.
In the case of `C=CC(=O)N1CC(C2CCNc3c(C(N)=O)c(-c4ccc(OCc5ccccc5)cc4)nn32)C1` (stereo not shown) [Compound 104, 7-(1-acryloylazetidin-3-yl)-2-(4-(benzyloxy)phenyl)-4,5,6,7-tetrahydropyrazolo[1,5-a]pyrimidine-3-carboxamide], the IC50 is 2.6 nM.
On to `C=CC(=O)N1CC(C2CCNc3c(C(N)=O)c(-c4ccc(OCc5ccccn5)cc4)nn32)C1` (stereo not shown) [Compound 105, 7-(1-acryloylazetidin-3-yl)-2-(4-(pyridin-2-ylmethoxy)phenyl)-4,5,6,7-tetrahydropyrazolo[1,5-a]pyrimidine-3-carboxamide], for which the IC50 was 18 nM.
The value for `C=CC(=O)N1CC(C2CCNc3c(C(N)=O)c(-c4ccc(Oc5ccc(Cl)cc5)cc4)nn32)C1` (stereo not shown) [Compound 106, 7-(1-acryloylazetidin-3-yl)-2-(4-(4-chlorophenoxy)phenyl)-4,5,6,7-tetrahydropyrazolo[1,5-a]pyrimidine-3-carboxamide] was 1.4 nM; that for `C=CC(=O)N1CC(C2CCNc3c(C(N)=O)c(-c4ccc(Oc5cccc(Cl)c5)cc4)nn32)C1` (stereo not shown) [Compound 107, 7-(1-acryloylazetidin-3-yl)-2-(4-(3-chlorophenoxy)phenyl)-4,5,6,7-tetrahydropyrazolo[1,5-a]pyrimidine-3-carboxamide] was 0.48 nM.
The value for `C=CC(=O)NCC1CCNc2c(C(N)=O)c(-c3ccc(OCc4ccccc4)cc3)nn21` (stereo not shown) [Compound 111, 7-(acrylamidomethyl)-2-(4-(benzyloxy)phenyl)-4,5,6,7-tetrahydropyrazolo[1,5-a]pyrimidine-3-carboxamide] was 24 nM.
Turning to `NCC1CCNc2c(C(N)=O)c(-c3ccc(OCC4CC4)cc3)nn21` (stereo not shown) [Compound 112, 7-(aminomethyl)-2-(4-(cyclopropylmethoxy)phenyl)-4,5,6,7-tetrahydropyrazolo[1,5-a]pyrimidine-3-carboxamide], the IC50 was > 10000 nM.
Turning to `C=CC(=O)NCC1CCNc2c(C(N)=O)c(-c3ccc(OCC4CC4)cc3)nn21` (stereo not shown) [Compound 113, 7-(acrylamidomethyl)-2-(4-(cyclopropylmethoxy)phenyl)-4,5,6,7-tetrahydropyrazolo[1,5-a]pyrimidine-3-carboxamide], the IC50 worked out at 94 nM.
Consider `NC(=O)c1c(-c2ccc(Oc3ccccc3)cc2)nn2c1NCCC21CNC1` [Compound 118, 2′-(4-phenoxyphenyl)-5′,6′-dihydro-4′H-spiro[azetidine-3,7′-pyrazolo[1,5-a]pyrimidine]-3′-carboxamide], for which the IC50 came to 410 nM.
On to `C=CC(=O)N1CC2(CCNc3c(C(N)=O)c(-c4ccc(Oc5ccccc5)cc4)nn32)C1` [Compound 119, 1-acryloyl-2′-(4-phenoxyphenyl)-5′,6′-dihydro-4′H-spiro[azetidine-3,7′-pyrazolo[1,5-a]pyrimidine]-3′-carboxamide], for which the IC50 was determined as 40 nM.
In the case of `NC(=O)c1c(-c2ccc(Oc3ccccc3)cc2)nn2c3c([nH]c12)CCNCC3` [Compound 120], the IC50 stood at 180 nM.
`CN(C)C/C=C/C(=O)N1CCc2[nH]c3c(C(N)=O)c(-c4ccc(Oc5ccccc5)cc4)nn3c2CC1` [Compound 122]: the half-maximal inhibitory concentration (IC50) worked out at 0.78 nM.
As to `CN(C)C/C=C/C(=O)N1CCCc2[nH]c3c(C(N)=O)c(-c4ccc(Oc5ccccc5)cc4)nn3c2C1` [Compound 124, (E)-8-(4-(dimethylamino)but-2-enoyl)-2-(4-phenoxyphenyl)-4,5,6,7,8,9-hexahydropyrazolo[5′,1′:2,3]imidazo[4,5-c]azepine-3-carboxamide], the IC50 came out at 0.62 nM.
The value for `NC(=O)c1c(-c2ccc(OCc3ccccc3)cc2)nn2c3c([nH]c12)CCNC3` [Compound 125, 2-(4-(benzyloxy)phenyl)-5,6,7,8-tetrahydro-4H-pyrazolo[5′,1′:2,3]imidazo[4,5-c]pyridine-3-carboxamide formate] was 5000 nM; that for `C=CC(=O)N1CCc2[nH]c3c(C(N)=O)c(-c4ccc(OCc5ccccc5)cc4)nn3c2C1` [Compound 126, 7-Acryloyl-2-(4-(benzyloxy)phenyl)-5,6,7,8-tetrahydro-4H-pyrazolo[5′,1′:2,3]imidazo[4,5-c]pyridine-3-carboxamide] was 20 nM.
For `C=CC(=O)N1CCc2[nH]c3c(C(N)=O)c(-c4ccc(OCC5CC5)cc4)nn3c2C1` [Compound 127, 7-acryloyl-2-(4-(cyclopropylmethoxy)phenyl)-5,6,7,8-tetrahydro-4H-pyrazolo[5′,1′:2,3]imidazo[4,5-c]pyridine-3-carboxamide], the half-maximal inhibitory concentration (IC50) was 300 nM.
Consider `NC(=O)c1c(-c2ccc(Oc3ccccc3)cc2)nn2c1[nH]c1cc([N+](=O)[O-])ccc12` [Compound 128, 6-nitro-2-(4-phenoxyphenyl)-4H-benzo[4,5]imidazo[1,2-b]pyrazole-3-carboxamide], for which the IC50 was 930 nM.
For `NC(=O)c1c(-c2ccc(Oc3ccccc3)cc2)nn2c1[nH]c1cc(N)ccc12` [Compound 129], the IC50 is 23 nM.
In the case of `NC(=O)c1c(-c2ccc(Oc3ccccc3)cc2)nn2c1[nH]c1cccc(N)c12` [Compound 131, 8-amino-2-(4-phenoxyphenyl)-4H-benzo[4,5]imidazo[1,2-b]pyrazole-3-carboxamide], the IC50 stood at 170 nM.
The value for `C=CC(=O)N1CC(C2CCNc3c(C(N)=O)c(-c4ccc(Oc5ccc(Cl)c(Cl)c5)cc4)nn32)C1` (stereo not shown) [Compound 132, 7-(1-acryloylazetidin-3-yl)-2-(4-(3,4-dichlorophenoxy)phenyl)-4,5,6,7-tetrahydropyrazolo[1,5-a]pyrimidine-3-carboxamide] was 1.7 nM.
The value for `C=CC(=O)N1CC(C2CCNc3c(C(N)=O)c(-c4ccc(Oc5ccccc5C#N)cc4)nn32)C1` (stereo not shown) [Compound 135, 7-(1-acryloylazetidin-3-yl)-2-(4-(2-cyanophenoxy)phenyl)-4,5,6,7-tetrahydropyrazolo[1,5-a]pyrimidine-3-carboxamide] was 0.38 nM; that for `C=CC(=O)Nc1ccccc1C1CCNc2c(C(N)=O)c(-c3ccc(F)c(F)c3)nn21` (stereo not shown) [Compound 137, 7-(2-acrylamidophenyl)-2-(3,4-difluorophenyl)-4,5,6,7-tetrahydropyrazolo[1,5-a]pyrimidine-3-carboxamide] was 3.2 nM.
Regarding `C=CC(=O)N1CCC(C2(C)CCNc3c(C(N)=O)c(-c4ccc(Oc5ccccc5)cc4)nn32)CC1` (stereo not shown) [Compound 138, 7-(1-acryloylpiperidin-4-yl)-7-methyl-2-(4-phenoxyphenyl)-4,5,6,7-tetrahydropyrazolo[1,5-a]pyrimidine-3-carboxamide], the 50% inhibitory concentration (IC50) amounted to 1 nM.
For `C=CC(=O)N1CC(C2CCNc3c(C(N)=O)c(-c4ccc(Oc5ccccc5)c(Cl)c4)nn32)C1` (stereo not shown) [Compound 139, 7-(1-acryloylazetidin-3-yl)-2-(3-chloro-4-phenoxyphenyl)-4,5,6,7-tetrahydropyrazolo[1,5-a]pyrimidine-3-carboxamide], the 50% inhibitory concentration (IC50) was 0.44 nM.
The value for `C=CC(=O)N1CC(C2CCNc3c(C(N)=O)c(-c4ccc(Oc5ccccc5)c(OC)c4)nn32)C1` (stereo not shown) [Compound 140, 7-(1-acryloylazetidin-3-yl)-2-(3-methoxy-4-phenoxyphenyl)-4,5,6,7-tetrahydropyrazolo[1,5-a]pyrimidine-3-carboxamide formate] was 3000 nM.
For `C=CC(=O)N1CC(C2CCNc3c(C(N)=O)c(-c4ccc(OCCc5ccccc5)cc4)nn32)C1` (stereo not shown) [Compound 141, 7-(1-acryloylazetidin-3-yl)-2-(4-phenethoxyphenyl)-4,5,6,7-tetrahydropyrazolo[1,5-a]pyrimidine-3-carboxamide], the IC50 came out at 7 nM.
The value for `C=CC(=O)NCC1CCNc2c(C(N)=O)c(-c3ccc(OCc4ccccc4)c(OC)c3)nn21` (stereo not shown) [Compound 142, 7-(acrylamidomethyl)-2-(4-(benzyloxy)-3-methoxyphenyl)-4,5,6,7-tetrahydropyrazolo[1,5-a]pyrimidine-3-carboxamide] was 54 nM.
